Laboratory results: paper PMC10603992, “Antimicrobial and Adjuvant Potencies of Di-n-alkyl Substituted Diazalariat Ethers” (Antibiotics, 2023)
≈ marks a conversion by molar mass, not a printed value. Like-named read-outs stand apart in the source and are kept apart here.

Key:
[1] = general value, no reference given; cited from earlier work
S. aureus [2] = assay: MIC against S. aureus under various pH and media conditions; type: cell-based, Staphylococcus aureus; conditions: for Change in MIC as the pH was increased from 6.4 to 8.4: S. aureus, Mueller Hinton medium
[3] = tested on: human embryonic kidney (HEK-293) cells; assay: Cytotoxicity against HEK-293 cells; type: cell-based; conditions: three independent trials
Text: (§1) The potential toxicity of 1–6 is a critical factor in their application either as an antimicrobial or an adjuvant. In vitro toxicity studies were therefore conducted using human embryonic kidney (HEK-293) and simian kidney (COS-7) cells. The graphs shown in Figure 20 show the percentage survival of each cell type as a function of lariat ether concentration on the logarithmic x-axis. In each graph, the IC50 value is specified for each compound and cell type. The value of IC50 is the concentration of lariat ether that inhibits the growth of 50% of the cells studied.
(§2) The cytotoxicity experiments were conducted as described in [44].

[4] = Turbidimetric solubility limit in MHII or PBS; type: physicochemical; conditions: DMSO ≤0.5%
Tet^R E. coli = assay: MIC against Tet^R E. coli; type: cell-based; conditions: Escherichia coli, read-out: MIC Tet^R E. coli
DH5α E. coli = assay: MIC against DH5α E. coli; type: cell-based; conditions: Escherichia coli, read-out: Minimum inhibitory concentration against DH5α E. coli
K12 E. coli = assay: MIC against K12 E. coli; type: cell-based; conditions: MHII media, 90% growth inhibition, read-out: MIC K12 E. coli
S. aureus 1199B [5] = assay: Checkerboard combination with norfloxacin; type: cell-based, Staphylococcus aureus
Text: Each of the checkerboard analyses shown in Figure 7 combines one of 1–6 with norfloxacin. S. aureus 1199B is resistant to norfloxacin. By combining varying concentrations of both norfloxacin and a lariat ether or lariat ether derivative, potency enhancement, if any, can be determined. In the graphs (checkerboards) shown, the potency of each concentration combination can be assessed visually.
In both cases, the concentrations varied by a factor of two. Four controls were employed on each checkerboard plate: full growth (only cells), no growth (only media), and then a column for each drug alone to accurately reflect their individual MIC values. The concentrations of amphiphile and antibiotic tested were ½, ¼, ^1/8, ^1/16, and ^1/32 of the MIC. Preparation of the stock solutions and plates was by the same method described in the minimum inhibitory concentration section.

S. aureus 1199B [6] = assay: MIC against S. aureus 1199B; type: cell-based, Staphylococcus aureus; conditions: for MIC: Staphylococcus aureus, 1199B, read-out: MIC S. aureus 1199B, MHII media, 90% growth inhibition
[7] = target: T1, NorA efflux pumps in S. aureus 1199B (Staphylococcus aureus, UniProt P0A0J7); assay: Efflux pump inhibition (EthBr accumulation); type: cell-based; conditions: 3 at […] µM vs reserpine at 50 µg/mL (80 µM)
T1 construct: Increase in EthBr fluorescence observed by its accumulation in S. aureus 1199B cytosol; endogenous in cells; host or cells: Staphylococcus aureus 1199B (whole bacteria)
Text: An important reason for the choice of S. aureus 1199B for study is that its resistance to norfloxacin is known to result from the presence of the Nor A efflux pump. Efflux pumps require regulated ion balance to function so that exogeneous substances such as antibacterials can effectively be ejected. Ethidium bromide (EthBr) can penetrate bacteria and is detectable by its fluorescence. To the extent that ion homeostasis is disrupted, ion balance is deregulated, and efflux pump function is compromised or inhibited.
Experimental details have been reported in [44].

S. aureus (1199B) = assay: Membrane permeability (propidium iodide / alamar blue); type: cell-based, Staphylococcus aureus; conditions: compound at ½ MIC
Method: Membrane permeability was assessed by using the dyes propidium iodide and alamar blue. […] However, when PI does enter a cell, it intercalates within the DNA structure. […] When intercalation occurs, a strong fluorescent emission can be detected. Alamar blue, based on resazurin, is a nontoxic weakly fluorescent dye that is sensitive to reduction potential within vital cells. When reduced, it is converted into highly fluorescent resorufin (7-hydroxy-3H-phenoxazin-3-one).
The combination of alamar blue and propidium iodide allowed us to assess the membrane permeability of S. aureus while confirming cellular vitality. Results of the PI/alamar blue studies with S. aureus are summarized in the graph of Figure 5. When S. aureus (1199B) was exposed to the two dyes, penetration of PI was relatively low and cellular vitality remained high. […] In general, cellular penetration and vitality correlated.
Membrane permeability studies were conducted as detailed in [48].

[8] = tested on: simian kidney (COS-7) cells; assay: Cytotoxicity against COS-7 cells; type: cell-based; conditions: Chlorocebus aethiops, COS-7, percentage survival, three independent trials
Text: as §1, §2

S. aureus [9] = assay: Membrane depolarization by DiBAC4(3) fluorescence; type: cell-based, Staphylococcus aureus; conditions: compound at ½ MIC
Method: Disruption of ion homeostasis by 1–6 should be apparent in the associated membrane depolarization. […] The dye is readily absorbed by bacteria owing to the negative internal potential. Disruption of ion homeostasis will affect both proton and potassium cation regulation. The internalized, self-quenched dye will be released and increased fluorescence will be observed.
Two types of experiments were performed to assess membrane depolarization. […] If ion homeostasis is affected by the presence of any of these compounds, the fluorescent response should increase as the lariat ether concentration increased.
A second series of experiments was performed to determine the relationship of disrupted ion homeostasis, as reflected in membrane depolarization with cellular vitality (Figure 17). […] Alamar blue (see above) was used to determine cell viability. No depolarization was apparent in the S. aureus control in the absence of a lariat ether or lariat ether derivative. Depolarization was greatest for C10LE•MeI (3). […] We note that the MIC values for S. aureus observed for 2, 3, 5, and 6 were similar.
The membrane depolarization study was conducted as described in [48].

[10] = Dynamic light scattering of C12LE aggregation; type: physicochemical; conditions: for Slope of C12LE aggregation (DLS particle size): water, in the presence of the antimicrobial or C12LE alone
Method: It is known that dialkyldiazacrowns form stable aggregates in aqueous solution [57, 62]. It was hypothesized that complexation between antimicrobials and macrocycles would alter or prevent the ability of the complex to form aggregates. […] Indeed, the particle sizes observed when chlortetracycline is present was almost indistinguishable from particle formation by C12LE (4) alone.
Measurements were performed on a Brookhaven Instruments Corp. ZetaPALS instrument at 25 °C using a 660 nm laser and correlating scattering at 90°. Samples were prepared by initially dissolving the amphiphile in filtered DMSO obtained from ThermoFisher. Next, they were diluted into 1× PBS such that DMSO was fixed at 0.5% in 15 mL sterile conical tubes. 10× PBS was obtained commercially, then diluted 10-fold in MQ H2O. The mixture was vortexed and incubated at room temperature for 2 h, then transferred to a clean quartz cuvette and equilibrated in the instrument for 10 min at 25 °C. Ten measurements consisting of 2 min runs were made on each sample. The average effective diameter was calculated with standard error reported for at least three trials.

[11] = Staphylococcus aureus, MH + Ca2+, read-out: MIC S. aureus, MH + Ca^2+
[12] = Homo sapiens, HEK293, percentage survival
[13] = Staphylococcus aureus, pH 6.4, MHII, pH 6.4, read-out: MIC S. aureus, MHII pH 6.4
[14] = Staphylococcus aureus, pH 7.4, MHII, pH 7.4, read-out: MIC S. aureus, MHII pH 7.4
[15] = Staphylococcus aureus, pH 8.4, MHII, pH 8.4, read-out: MIC S. aureus, MHII pH 8.4
[16] = Mueller Hinton II broth, 37 °C, pH 7.3, plasma or biological fluid, kinetic from dmso stock, Mueller Hinton II, pH 7.3, 2 h at 37 °C, read-out: Solubility limit in MHII
[17] = phosphate-buffered saline, 37 °C, aqueous buffer, kinetic from dmso stock, phosphate-buffered saline, 2 h at 37 °C, read-out: Solubility limit in PBS
[18] = no additional antimicrobial, MICs in table limited to […]

T1 sequence (P0A0J7 whole entry): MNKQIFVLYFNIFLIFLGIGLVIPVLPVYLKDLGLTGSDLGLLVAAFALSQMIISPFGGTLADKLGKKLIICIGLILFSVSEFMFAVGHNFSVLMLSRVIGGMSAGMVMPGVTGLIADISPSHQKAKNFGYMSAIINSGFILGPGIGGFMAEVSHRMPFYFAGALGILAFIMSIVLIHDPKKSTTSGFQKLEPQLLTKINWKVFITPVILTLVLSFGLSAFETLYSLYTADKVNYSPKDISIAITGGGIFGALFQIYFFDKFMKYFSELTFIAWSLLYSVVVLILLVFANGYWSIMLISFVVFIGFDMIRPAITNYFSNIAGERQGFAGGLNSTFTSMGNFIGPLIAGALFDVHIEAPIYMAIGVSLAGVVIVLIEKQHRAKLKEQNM

CC1(C)S[C@@H]2[C@H](NC(=O)[C@H](N)c3ccccc3)C(=O)N2[C@H]1C(=O)O [Ampicillin, ampicillin]
pKa of the carboxyl groups [1]: 2.6–2.8

CCCCCCCCCCN1CCOCCOCCN(CCCCCCCCCC)CCOCCOCC1 [C10LE (1), N,N′-Di-n-decyl-4-13-diaza-18-crown-6]
MIC (S. aureus [2]; MH medium, read-out: MIC S. aureus, MH): 16 µM (≈ 8.69 µg/mL)
MIC (S. aureus [2]; MHII, pH 6.4, read-out: MIC S. aureus, MHII pH 6.4): 16 µM (≈ 8.69 µg/mL)
MIC (S. aureus [2]; MHII, pH 7.4, read-out: MIC S. aureus, MHII pH 7.4): ≥16 µM
MIC (S. aureus [2]; MHII, pH 8.4, read-out: MIC S. aureus, MHII pH 8.4): 32 µM (≈ 17.4 µg/mL)
Change in MIC as the pH was increased from 6.4 to 8.4 (S. aureus [2]): changes in MIC were observed
MIC (S. aureus [2]; [11]): 16 µM
IC50 [3, 12]: 13 µM
IC50 ([3]; percentage survival): ≤ 10 µM
solubility at 2 h ([4]; Mueller Hinton II, pH 7.3, 2 h at 37 °C, read-out: Solubility limit in MHII): ≥128 µM
solubility at 2 h ([4]; phosphate-buffered saline, 2 h at 37 °C, read-out: Solubility limit in PBS): ≥128 µM
MIC (Tet^R E. coli): 8 µM (≈ 4.34 µg/mL)
MIC (DH5α E. coli): 11 µM (≈ 5.97 µg/mL)
MIC (K12 E. coli): 10 µM (≈ 5.43 µg/mL)
Norfloxacin concentration required to effect 90% growth inhibition (S. aureus 1199B [5]; lariat ether co-administered at 2 µM): 0.5 µM
Fold increase in the potency of norfloxacin (S. aureus 1199B [5]; norfloxacin-resistant S. aureus 1199B, checkerboard): 128 fold
MIC S. aureus 1199B (S. aureus 1199B [6]; MHII media, 90% growth inhibition): 8 µM (≈ 4.34 µg/mL)

CCCCCCCCCC[N+]1(C)CCOCCOCC[N+](C)(CCCCCCCCCC)CCOCCOCC1 (stereo not shown) [C10LE•2MeI (3), N,N′-Di-n-decyl-4-13-diaza-18-crown-6 bis(methiodide)]
Potency as efflux pump inhibitor relative to reserpine [7]: approximately five times more potent
Change in MIC as the pH was increased from 6.4 to 8.4 (S. aureus [2]): unchanged
MIC (S. aureus [2]; [11]): 16 µM
MIC (S. aureus [2]; Staphylococcus aureus, MH medium, read-out: MIC S. aureus, MH): 2 µM
MIC (S. aureus [2]; [13]): 2 µM
MIC (S. aureus [2]; [14]): 2 µM
MIC (S. aureus [2]; [15]): 2 µM
IC50 [3, 12]: 36 µM
PI penetration (membrane permeability) (S. aureus (1199B)): good penetration
solubility at 2 h [4, 16]: 64 µM
solubility at 2 h [4, 17]: ≥ 128 µM
IC50 [8]: 53 µM
MIC (Tet^R E. coli): 32 µM
MIC (DH5α E. coli; [18]): 24 µM
Membrane depolarization (DiBAC4(3) fluorescence) (S. aureus [9]): greatest
MIC (K12 E. coli; Escherichia coli): 16 µM
MIC (S. aureus 1199B [6]): 1 to 2 µM

CCCCCCCCCCCC[N+]1(C)CCOCCOCC[N+](C)(CCCCCCCCCCCC)CCOCCOCC1 (stereo not shown) [C12LE•2MeI (6), N,N′-Di-n-dodecyl-4-13-diaza-18-crown-6 bis(methiodide)]
Change in MIC as the pH was increased from 6.4 to 8.4 (S. aureus [2]): unchanged
MIC (S. aureus [2]; [13]): 2 µM
MIC (S. aureus [2]; [14]): 2 µM
MIC (S. aureus [2]; [15]): 2 µM
IC50 [3, 12]: 11 µM
IC50 ([3]; percentage survival): ≤ 10 µM
PI penetration (membrane permeability) (S. aureus (1199B)): level of PI penetration similar to that observed for S. aureus alone
solubility at 2 h [4, 16]: 1 to 2 µM
solubility at 2 h [4, 17]: ≥ 128 µM
IC50 [8]: 25 µM
MIC (Tet^R E. coli): 16 µM
MIC (DH5α E. coli; [18]): 2 µM
MIC (K12 E. coli; Escherichia coli): 4 µM
MIC (S. aureus 1199B [6]): 1 µM

CO/N=C(\C(=O)N[C@@H]1C(=O)N2C(C(=O)[O-])=C(C[N+]3(C)CCCC3)CS[C@H]12)c1csc(N)n1 [Cefepime, cefepime]
Slope of C12LE aggregation (DLS particle size) [10]: 3.2

O=C(O)c1cn(C2CC2)c2cc(N3CCNCC3)c(F)cc2c1=O [Ciprofloxacin, ciprofloxacin]
Slope relative to the particle size profile of C12LE alone ([10]; DLS): about 60%
Slope of C12LE aggregation (DLS particle size) [10]: 1.8

NC[C@H]1O[C@H](O[C@H]2[C@H](O)[C@@H](O[C@H]3O[C@H](CO)[C@@H](O)[C@H](N)[C@H]3O)[C@H](N)C[C@@H]2N)[C@H](O)[C@@H](O)[C@@H]1O [Kanamycin, kanamycin]
Slope of C12LE aggregation (DLS particle size) [10]: 2.5
